Data from PMC9785202, “Changes in Disposition of Ezetimibe and Its Active Metabolites Induced by Impaired Hepatic Function: The Influence of Enzyme and Transporter Activities” (Pharmaceutics, 2022).
Where two headings read alike, the source gives them in different places.

Key:
[1] = test system: rat primary hepatocytes; assay: Uptake of EZE and EZE-Ph by rat primary hepatocytes; assay type: in vitro ADME; details: 10 μM, 10 min
Description: Rat primary hepatocytes were isolated from male SD rats as previously described [34]. Fresh rat hepatocytes (120,000 per well) were cultured in Williams’ E medium (containing 0.1 μM dexamethasone, 5% fetal bovine serum, 1% penicillin G/streptomycin, 1% GlutaMAX-I, and 1% insulin–transferrin–selenium) on collagen I-coated 48-well plates. Rat hepatocytes cultured for 4 h under a carbogen atmosphere were directly used for uptake assays.
The hepatocytes were rinsed three times with HBSS (37 °C) and equilibrated in HBSS for 10 min. […] After 10 min of incubation, cells were quickly washed three times with ice-cold HBSS and then lysed by the addition of 300 μL of purified water. The protein content was measured using the BCA protein assay kit. EZE and EZE-Ph were analyzed by LC-MS/MS.
The rates of substrate uptake were normalized using the protein contents of cell lysates.

[2] = Portal vein and femoral vein plasma pharmacokinetics after oral EZE; assay type: in vivo, rats; details: oral 10 mg/kg EZE; for AUC(0-t): Sprague-Dawley, rat, po, 10 mg/kg
Description: To investigate changes due to the first-pass metabolism and biliary excretion during liver disease, CCl4-induced rats (n = 5) and control rats (n = 5) were anesthetized and the hepatic portal and femoral veins were cannulated with PE-50 polyethylene tubing. EZE was orally administered to rats at 10 mg/kg. Blood samples were collected simultaneously from the hepatic portal and femoral veins before administration (0 h), at 5, 15, and 30 min, and at 1, 2, 4, 6, 8, 12, 24, and 48 h after administration. Plasma samples were harvested as previously described.
(§1) A 25.0 μL aliquot of each sample and 25.0 μL of internal standard (50.0 ng/mL EZE-d4) were mixed with 100 μL of acetonitrile. After the samples were vortexed and centrifugated at 2250 g for 15 min, the supernatants were used to measure EZE and its metabolites by LC-MS/MS.
(§2) WinNonlin version 6.1 (Pharsight Corp., Cary, NC, USA) was used to calculate the pharmacokinetic parameters in a non-compartmental model. Statistical comparisons between the two groups were evaluated using a Student’s two-tailed unpaired t-test or the nonparametric Mann–Whitney test in GraphPad Prism (version 8.0, GraphPad Software Inc, SanDiego, CA, USA). A value of p < 0.05 was considered significant. All data were presented as the mean ± S.D. (n ≥ 3).

[3] = Pharmacokinetics after intravenous or oral administration of 10 mg/kg EZE to control and CCl4-induced rats; assay type: in vivo; details: for AUC(0-t) / half-life / Cmax at 5 min / Cmax / Tmax: Sprague-Dawley, rat, plasma, 10 mg/kg; for Cmax at 5 min: read-out: Cmax (* plasma concentration at 5 min after intravenous injection)
Description: Animals were fasted for 12 h with free access to water before the experiments. EZE was administered orally (prepared in 0.5% carboxymethylcellulose sodium) or intravenously (dissolved in 10% dimethyl sulfoxide, 10% tween-80, and 80% sterile H2O) to CCl4-induced rats (n = 5) and control rats (n = 5) at 10 mg/kg. Blood samples were collected from the retro-orbital venous plexus before administration (0 h), at 5, 15, and 30 min, and at 1, 2, 4, 6, 8, 12, 24, and 48 h after administration in tubes containing EDTA-2K. Plasma samples were harvested by centrifugation at 11,600 g for 5 min at 4 °C and then stored at −80 °C until further analysis.
as §1, §2

[4] = target: T1, MDR1 (Homo sapiens, UniProt P08183); assay: Transport study with MDR1-expressing membrane vesicles; assay type: in vitro ADME; details: 10 μM, 10 min
T1 construct: purchased GenoMembrane Co., Ltd. (Yokohama, Japan); host or cells: Sf9 insect cells
Description: (§3) Human MDR1-, MRP2-, and MRP3-expressing membrane vesicles isolated from Sf9 insect cells were sourced from GenoMembrane Co., Ltd. (Yokohama, Japan).
(§4) In transport studies, a modified rapid filtration technique was used according to the manufacturer’s protocol (GenoMembrane Co.). The uptake of test compounds (10 μM EZE or EZE-Ph) into membrane vesicles (100 μg protein/100 μL) was conducted with or without 4 mM ATP in the transport medium (50 μL, pH 7.4), which included 50 mM MOPS-Tris, 70 mM KCl, and 7.5 mM MgCl2. The vesicular transport was terminated after 10 min by adding 200 μL of ice-cold stop buffer containing 40 mM MOPS-Tris and 70 mM KCl. The stopped incubate was quickly transferred to a 96-well glass fiber filter plate (Millipore, MA, USA) and washed five times with ice-cold stop buffer. The EZE and EZE-Ph inside the vesicles were released by adding 200 μL of methanol–water (70:30, v/v) and analyzed by LC-MS/MS. The ATP-dependent transport was evaluated based on the ratio of transport with ATP to that without ATP.

[5] = test system: UGTs; assay: Incubation of EZE with liver S9 fractions of control and CCl4-induced rats (glucuronidation); assay type: in vitro ADME, rat; details: 60 min
Description: One portion of the rat liver tissue was homogenized in a 5-fold volume of ice-cold phosphate buffer (including 250 mM sucrose, 10 mM Tris-HCl, and 1 mM EDTA-2Na, pH 7.4) and centrifugated at 9000 g for 20 min. After centrifugation, the supernatant was collected as the S9 fraction and stored at −80 °C.
To evaluate the effect of hepatic impairment on the hepatic metabolism of EZE, 0.3 μM, 3 μM, and 30 μM EZE were incubated with rat liver S9 fractions (2 mg of protein/mL) at 37 °C for 60 min in the Tris-HCl-buffered system (100 mM, pH 7.4), consisting of UDPGA (1 mM), MgCl2 (10 mM), and alamethicin (25 μg/mL). To investigate the effect of bile acids on the metabolism of EZE in the liver, 3 μM EZE was incubated with rat or human liver S9 fractions (2 mg of protein/mL) at 37 °C for 60 min in the Tris-HCl-buffered system with or without bile acids at 1, 10, and 100 μM. The total volume of the incubation system was 100 μL. The reactions were terminated by adding 100 μL of ice-cold acetonitrile. Samples were stored at −20 °C until analysis. EZE and EZE-Ph were detected by liquid chromatography with tandem mass spectrometry (LC-MS/MS).

[6] = for Autosampler stability (4°C, 24 h), RE / Post-extraction stability (room temperature 3 h), RE / Freeze-thaw stability (−20°C, three cycles), RE / Short-term stability (room temperature 3 h), RE: n = 6; for stability in rat plasma under the test conditions: LQC and HQC samples, short-term, post-extraction, auto-sampler, three freeze/thaw cycles; for Freeze-thaw stability (−20°C, three cycles), RE / Short-term stability (room temperature 3 h), RE: rat plasma; for stability in blood: room temperature for 2 h
Description: The instrument parameters were as follows: ion spray voltage, −4500 V; source temperature, 550 °C; nebulizer gas, 60 psi; heater gas, 60 psi; and curtain gas, 40 psi. […] Data were acquired and processed with the Analyst 1.6.3 software (Applied Biosystems). The standard curve ranges were 1.00 to 1000 ng/mL for EZE, 3.00 to 3000 ng/mL for EZE-Ph, and 1.00 to 1000 ng/mL for EZE-Hy in plasma.
Summary of the stability of ezetimibe and its metabolites in rat plasma (n = 6).

[7] = target: T2, MRP2 (Homo sapiens, UniProt Q92887); assay: Transport study with MRP2-expressing membrane vesicles; assay type: in vitro ADME; details: 10 μM, 10 min
T2 construct: purchased GenoMembrane Co., Ltd. (Yokohama, Japan); host or cells: Sf9 insect cells
Description: as §3, §4

[8] = target: T3, MRP3 (Homo sapiens, UniProt O15438); assay: Transport study with MRP3-expressing membrane vesicles; assay type: in vitro ADME; details: 10 μM, 10 min
T3 construct: purchased GenoMembrane Co., Ltd. (Yokohama, Japan); host or cells: Sf9 insect cells
Description: as §3, §4

[9] = femoral vein plasma, CCl4-induced rats, read-out: AUC0–t in femoral vein plasma
[10] = femoral vein plasma, control rats, read-out: AUC0–t in femoral vein plasma
[11] = portal vein plasma, CCl4-induced rats, read-out: AUC0–t in portal vein plasma
[12] = portal vein plasma, control rats, read-out: AUC0–t in portal vein plasma
[13] = iv, i.v. 10 mg/kg EZE, CCl4-induced rats
[14] = iv, i.v. 10 mg/kg EZE, control rats
[15] = po, p.o. 10 mg/kg EZE, CCl4-induced rats
[16] = po, p.o. 10 mg/kg EZE, control rats
[17] = intravenous injection of 10 mg/kg EZE
[18] = oral administration of 10 mg/kg EZE
[19] = LQC (EZE/EZE-Ph/EZE-Hy 3.00/9.00/3.00 ng/ml)

T2 sequence (Q92887 whole entry): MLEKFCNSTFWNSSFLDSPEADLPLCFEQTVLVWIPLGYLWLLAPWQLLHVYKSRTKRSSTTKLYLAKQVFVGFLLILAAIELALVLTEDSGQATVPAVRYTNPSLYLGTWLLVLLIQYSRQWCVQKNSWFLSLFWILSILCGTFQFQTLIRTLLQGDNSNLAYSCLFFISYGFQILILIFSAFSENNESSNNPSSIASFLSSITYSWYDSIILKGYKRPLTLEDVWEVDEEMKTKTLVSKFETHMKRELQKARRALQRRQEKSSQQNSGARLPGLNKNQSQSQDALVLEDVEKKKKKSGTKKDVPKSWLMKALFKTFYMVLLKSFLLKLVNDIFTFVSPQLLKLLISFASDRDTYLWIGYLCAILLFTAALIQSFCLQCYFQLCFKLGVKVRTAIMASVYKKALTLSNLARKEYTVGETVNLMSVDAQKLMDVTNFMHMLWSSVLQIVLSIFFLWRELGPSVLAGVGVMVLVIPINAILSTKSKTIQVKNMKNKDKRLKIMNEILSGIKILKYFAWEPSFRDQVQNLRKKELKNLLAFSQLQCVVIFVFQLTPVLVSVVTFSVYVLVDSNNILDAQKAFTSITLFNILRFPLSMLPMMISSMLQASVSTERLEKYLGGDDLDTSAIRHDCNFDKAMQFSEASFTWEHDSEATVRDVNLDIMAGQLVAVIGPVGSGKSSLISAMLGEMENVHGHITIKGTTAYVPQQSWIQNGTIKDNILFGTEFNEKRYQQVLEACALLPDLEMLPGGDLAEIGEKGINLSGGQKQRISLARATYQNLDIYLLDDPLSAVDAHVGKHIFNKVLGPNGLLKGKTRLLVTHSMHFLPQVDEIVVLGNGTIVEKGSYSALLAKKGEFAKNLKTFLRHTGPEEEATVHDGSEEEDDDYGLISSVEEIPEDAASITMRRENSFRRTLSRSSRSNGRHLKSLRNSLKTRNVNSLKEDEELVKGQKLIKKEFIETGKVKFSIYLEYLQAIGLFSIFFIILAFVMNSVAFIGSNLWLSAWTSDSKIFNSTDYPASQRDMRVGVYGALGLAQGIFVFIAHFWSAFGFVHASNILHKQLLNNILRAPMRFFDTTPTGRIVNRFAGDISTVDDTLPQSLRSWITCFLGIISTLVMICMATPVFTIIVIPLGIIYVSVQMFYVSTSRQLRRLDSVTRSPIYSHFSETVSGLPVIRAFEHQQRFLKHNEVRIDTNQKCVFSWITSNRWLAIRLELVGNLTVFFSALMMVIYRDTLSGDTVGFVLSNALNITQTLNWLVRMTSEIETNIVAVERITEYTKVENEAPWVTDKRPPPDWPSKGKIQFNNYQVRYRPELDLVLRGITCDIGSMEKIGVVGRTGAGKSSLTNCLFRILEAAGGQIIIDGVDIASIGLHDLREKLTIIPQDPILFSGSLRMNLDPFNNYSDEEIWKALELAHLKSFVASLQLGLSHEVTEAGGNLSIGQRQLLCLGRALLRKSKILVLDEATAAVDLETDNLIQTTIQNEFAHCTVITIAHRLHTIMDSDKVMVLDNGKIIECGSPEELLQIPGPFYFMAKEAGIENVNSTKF
T1 sequence (P08183 whole entry): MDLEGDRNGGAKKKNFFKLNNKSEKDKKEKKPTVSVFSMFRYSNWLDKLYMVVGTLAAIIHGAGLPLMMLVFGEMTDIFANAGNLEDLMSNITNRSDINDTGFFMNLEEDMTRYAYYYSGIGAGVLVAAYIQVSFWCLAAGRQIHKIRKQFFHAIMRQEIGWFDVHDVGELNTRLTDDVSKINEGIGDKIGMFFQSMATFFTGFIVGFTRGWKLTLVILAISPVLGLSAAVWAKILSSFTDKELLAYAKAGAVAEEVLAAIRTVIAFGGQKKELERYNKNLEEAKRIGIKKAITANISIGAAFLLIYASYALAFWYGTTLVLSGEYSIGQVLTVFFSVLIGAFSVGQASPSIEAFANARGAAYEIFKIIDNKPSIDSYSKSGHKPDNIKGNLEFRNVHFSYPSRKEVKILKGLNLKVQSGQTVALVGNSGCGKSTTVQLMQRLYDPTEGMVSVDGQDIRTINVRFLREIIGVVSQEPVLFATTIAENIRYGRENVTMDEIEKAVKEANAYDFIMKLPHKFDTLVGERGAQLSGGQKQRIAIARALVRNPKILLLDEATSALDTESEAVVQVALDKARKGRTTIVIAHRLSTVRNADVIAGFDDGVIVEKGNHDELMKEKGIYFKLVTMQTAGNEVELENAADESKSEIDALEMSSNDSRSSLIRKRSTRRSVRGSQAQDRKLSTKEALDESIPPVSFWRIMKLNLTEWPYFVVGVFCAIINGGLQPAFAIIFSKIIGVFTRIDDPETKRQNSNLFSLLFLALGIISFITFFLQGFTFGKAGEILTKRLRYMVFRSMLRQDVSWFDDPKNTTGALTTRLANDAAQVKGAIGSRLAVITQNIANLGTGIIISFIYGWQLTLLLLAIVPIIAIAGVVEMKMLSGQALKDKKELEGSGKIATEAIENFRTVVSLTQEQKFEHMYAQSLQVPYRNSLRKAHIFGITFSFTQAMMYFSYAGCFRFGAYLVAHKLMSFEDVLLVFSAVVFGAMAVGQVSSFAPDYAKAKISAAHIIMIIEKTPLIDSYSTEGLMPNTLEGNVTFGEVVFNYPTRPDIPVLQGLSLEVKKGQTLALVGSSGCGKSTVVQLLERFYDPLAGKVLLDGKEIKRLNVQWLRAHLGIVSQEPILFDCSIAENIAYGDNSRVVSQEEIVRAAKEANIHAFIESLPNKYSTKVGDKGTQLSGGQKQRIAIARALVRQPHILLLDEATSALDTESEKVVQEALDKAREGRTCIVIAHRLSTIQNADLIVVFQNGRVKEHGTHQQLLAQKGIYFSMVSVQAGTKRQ
T3 sequence (O15438 whole entry): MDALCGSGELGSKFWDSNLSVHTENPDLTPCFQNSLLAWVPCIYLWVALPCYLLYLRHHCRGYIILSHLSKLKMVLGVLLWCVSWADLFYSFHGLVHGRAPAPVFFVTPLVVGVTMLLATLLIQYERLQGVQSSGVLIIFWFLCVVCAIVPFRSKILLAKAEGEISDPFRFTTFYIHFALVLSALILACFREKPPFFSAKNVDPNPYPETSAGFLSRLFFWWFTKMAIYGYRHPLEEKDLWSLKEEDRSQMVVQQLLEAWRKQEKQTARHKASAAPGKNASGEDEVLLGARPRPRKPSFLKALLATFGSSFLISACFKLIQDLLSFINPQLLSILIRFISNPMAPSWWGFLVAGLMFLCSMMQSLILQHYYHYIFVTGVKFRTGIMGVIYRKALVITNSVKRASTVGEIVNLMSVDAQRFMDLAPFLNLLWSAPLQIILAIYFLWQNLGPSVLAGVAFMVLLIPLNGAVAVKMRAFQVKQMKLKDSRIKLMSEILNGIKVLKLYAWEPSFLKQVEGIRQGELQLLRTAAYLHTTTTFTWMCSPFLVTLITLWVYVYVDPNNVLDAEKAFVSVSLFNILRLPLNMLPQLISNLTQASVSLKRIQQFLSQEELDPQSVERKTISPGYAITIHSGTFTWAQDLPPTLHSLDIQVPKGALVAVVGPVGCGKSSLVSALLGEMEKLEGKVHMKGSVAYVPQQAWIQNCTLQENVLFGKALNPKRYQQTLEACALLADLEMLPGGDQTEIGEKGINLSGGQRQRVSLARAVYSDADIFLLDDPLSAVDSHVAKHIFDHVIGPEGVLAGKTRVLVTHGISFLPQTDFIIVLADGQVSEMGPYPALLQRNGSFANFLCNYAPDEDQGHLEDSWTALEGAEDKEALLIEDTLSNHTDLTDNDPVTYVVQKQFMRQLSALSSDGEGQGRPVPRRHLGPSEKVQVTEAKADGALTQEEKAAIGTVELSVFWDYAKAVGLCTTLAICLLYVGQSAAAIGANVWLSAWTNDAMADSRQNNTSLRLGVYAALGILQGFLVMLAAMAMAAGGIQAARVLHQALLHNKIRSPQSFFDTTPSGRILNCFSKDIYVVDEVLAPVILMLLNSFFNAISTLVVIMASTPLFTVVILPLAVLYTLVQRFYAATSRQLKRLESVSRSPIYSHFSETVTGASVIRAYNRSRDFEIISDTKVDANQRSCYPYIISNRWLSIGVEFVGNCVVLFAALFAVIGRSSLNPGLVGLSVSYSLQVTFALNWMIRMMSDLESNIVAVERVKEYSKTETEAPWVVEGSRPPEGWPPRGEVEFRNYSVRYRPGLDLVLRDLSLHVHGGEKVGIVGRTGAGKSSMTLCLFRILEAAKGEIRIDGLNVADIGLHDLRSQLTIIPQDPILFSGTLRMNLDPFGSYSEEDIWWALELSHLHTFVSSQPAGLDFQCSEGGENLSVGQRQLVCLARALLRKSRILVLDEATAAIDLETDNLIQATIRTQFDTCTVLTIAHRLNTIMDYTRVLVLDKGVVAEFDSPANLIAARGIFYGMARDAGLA

O=C1[C@H](CC[C@H](O)c2ccc(F)cc2)[C@@H](c2ccc(O)cc2)N1c1ccc(F)cc1 [EZE, 1-(4-fluorophenyl)-3(R)-[3-(4-fluorophenyl)-3(S)-hydroxypropyl]-4(S)-(4-hydroxyphenyl)-2-azetidinone, reference compound]
temperature dependence of uptake into isolated rat hepatocytes ([1]; 37 °C vs 4 °C): independent of temperature
AUC(0-t) [2, 9]: 191 ng·h/mL
AUC(0-t) [2, 10]: 56.2 ng·h/mL
AUC(0-t) [2, 11]: 352 ng·h/mL
AUC(0-t) [2, 12]: 1850 ng·h/mL
AUC0-t in portal vein, decrease in CCl4-induced rats compared with control rats [2]: 81.0%
AUC0–t portal vein plasma vs femoral vein plasma, fold higher ([2]; CCl4-induced rats): 1.84 fold
AUC0–t portal vein plasma vs femoral vein plasma, fold higher ([2]; control rats): 33.0 fold
time of second absorption peak ([2]; control rats): 9.5 h
AUC(0-t) [3, 13]: 4610 ± 781 ng·h/mL
half-life [3, 13]: 7.67 ± 3.08 h
Cmax at 5 min [3, 13]: 2950 ± 571 ng/mL
AUC(0-t) [3, 14]: 2180 ± 304 ng·h/mL
half-life [3, 14]: 6.76 ± 3.31 h
Cmax at 5 min [3, 14]: 1560 ± 361 ng/mL
AUC(0-t) [3, 15]: 189 ± 66 ng·h/mL
Cmax [3, 15]: 20.4 ± 8.1 ng/mL
Tmax [3, 15]: 5.2 ± 3.9 h
half-life [3, 15]: 12.3 ± 5.3 h
AUC(0-t) [3, 16]: 17 ± 10 ng·h/mL
Cmax [3, 16]: 2.63 ± 2.68 ng/mL
Tmax [3, 16]: 4.95 ± 4.84 h
half-life [3, 16]: 5.56 ± 3.78 h
AUC0–t, fold higher in CCl4-induced rats than in control rats [3, 17]: 2.1 fold
AUC0–t, fold higher in CCl4-induced rats than in control rats [3, 18]: 11.1 fold
share in plasma relative to the main circulating component EZE-Ph [3, 18]: 0.4%
ATP-dependent transport via MDR1 membrane vesicles [4]: No significant ATP-dependent transport
increase of residue of EZE in CCl4-induced rats compared with control rats ([5]; liver S9, 0.3 μM EZE): 4.15 fold
increase of residue of EZE in CCl4-induced rats compared with control rats ([5]; liver S9, 3 μM EZE): 5.00 fold
increase of residue of EZE in CCl4-induced rats compared with control rats ([5]; liver S9, 30 μM EZE): 1.40 fold
Autosampler stability (4°C, 24 h), RE ([6]; HQC (800/2400/800 ng/ml)): 3.9%
Post-extraction stability (room temperature 3 h), RE ([6]; HQC (800/2400/800 ng/ml)): 3.9%
Autosampler stability (4°C, 24 h), RE ([6]; LQC (3.00/9.00/3.00 ng/ml)): 0.6%
Post-extraction stability (room temperature 3 h), RE ([6]; LQC (3.00/9.00/3.00 ng/ml)): 0.7%
stability in rat plasma under the test conditions [6]: stable
Freeze-thaw stability (−20°C, three cycles), RE ([6]; HQC (800/2400/800 ng/ml)): 1.1%
Short-term stability (room temperature 3 h), RE ([6]; HQC (800/2400/800 ng/ml)): -5.6%
Freeze-thaw stability (−20°C, three cycles), RE ([6]; LQC (3.00/9.00/3.00 ng/ml)): -1.0%
Short-term stability (room temperature 3 h), RE [6, 19]: -11.2%
stability in blood [6]: stable
ATP-dependent transport via MRP2 membrane vesicles [7]: No significant ATP-dependent transport
ATP-dependent transport via MRP3 membrane vesicles [8]: No significant ATP-dependent transport

O=C(O)[C@H]1O[C@@H](Oc2ccc([C@@H]3[C@@H](CC[C@H](O)c4ccc(F)cc4)C(=O)N3c3ccc(F)cc3)cc2)[C@H](O)[C@@H](O)[C@@H]1O [EZE-Ph, ezetimibe phenoxy β-D-glucuronide]
uptake at 37 °C relative to that at 4 °C ([1]; rat hepatocytes): 50.0 times
AUC(0-t) [2, 9]: 12500 ng·h/mL
AUC(0-t) [2, 10]: 2580 ng·h/mL
AUC(0-t) [2, 11]: 15900 ng·h/mL
AUC(0-t) [2, 12]: 14800 ng·h/mL
AUC0-t in femoral vein blood, fold increase in CCl4-induced rats vs control [2]: 4.83 fold
AUC0–t portal vein plasma vs femoral vein plasma, fold higher ([2]; CCl4-induced rats): 1.28 fold
AUC0–t portal vein plasma vs femoral vein plasma, fold higher ([2]; control rats): 5.75 fold
AUC(0-t) [3, 13]: 40400 ± 1810 ng·h/mL
Cmax [3, 13]: 6970 ± 807 ng/mL
Tmax [3, 13]: 0.45 ± 0.11 h
half-life [3, 13]: 9.58 ± 6.2 h
AUC(0-t) [3, 14]: 2470 ± 418 ng·h/mL
Cmax [3, 14]: 1050 ± 240 ng/mL
Tmax [3, 14]: 0.083 h
half-life [3, 14]: 8.96 ± 2.19 h
AUC(0-t) [3, 15]: 18300 ± 6990 ng·h/mL
Cmax [3, 15]: 1340 ± 585 ng/mL
Tmax [3, 15]: 3 ± 1.41 h
half-life [3, 15]: 8.98 ± 2.1 h
AUC(0-t) [3, 16]: 4170 ± 1140 ng·h/mL
Cmax [3, 16]: 276 ± 69 ng/mL
Tmax [3, 16]: 8.8 ± 4.6 h
half-life [3, 16]: 5.5 ± 0.36 h
AUC0–t, fold higher in CCl4-induced rats than in control rats [3, 17]: 16.4 fold
AUC0–t, fold higher than that of EZE-Hy [3, 17]: approximately 2.5 fold
AUC0–t, fold higher in CCl4-induced rats than in control rats [3, 18]: 4.4 fold
+ATP/-ATP ratio ([4]; MDR1 vesicles): 5.64
decrease of formation of EZE-Ph in CCl4-induced rats compared with control rats ([5]; liver S9, 0.3 μM EZE): 8.80%
decrease of formation of EZE-Ph in CCl4-induced rats compared with control rats ([5]; liver S9, 3 μM EZE): 12.7%
decrease of formation of EZE-Ph in CCl4-induced rats compared with control rats ([5]; liver S9, 30 μM EZE): 27.4%
Autosampler stability (4°C, 24 h), RE ([6]; HQC (800/2400/800 ng/ml)): 6.0%
Post-extraction stability (room temperature 3 h), RE ([6]; HQC (800/2400/800 ng/ml)): 5.1%
Autosampler stability (4°C, 24 h), RE ([6]; LQC (3.00/9.00/3.00 ng/ml)): 5.3%
Post-extraction stability (room temperature 3 h), RE ([6]; LQC (3.00/9.00/3.00 ng/ml)): 8.8%
stability in rat plasma under the test conditions [6]: stable
Freeze-thaw stability (−20°C, three cycles), RE ([6]; HQC (800/2400/800 ng/ml)): -0.4%
Short-term stability (room temperature 3 h), RE ([6]; HQC (800/2400/800 ng/ml)): 0.3%
Freeze-thaw stability (−20°C, three cycles), RE ([6]; LQC (3.00/9.00/3.00 ng/ml)): 0.8%
Short-term stability (room temperature 3 h), RE [6, 19]: -1.9%
stability in blood [6]: stable
+ATP/-ATP ratio ([7]; MRP2 vesicles): 65.5
+ATP/-ATP ratio ([8]; MRP3 vesicles): 5.71
